Counter-ions that a name gives are not always drawn.
Target: T1, sodium channel (ENaC), canine bronchial epithelia (Canis lupus familiaris, UniProt A0A8I3MKE6+A0A8I3Q679+Q95165)
T1 construct: endogenous in cells; host or cells: primary canine bronchial epithelial cells cultured at air-liquid interface, mounted in Ussing chambers
T1 sequence (A0A8I3Q679 1-649): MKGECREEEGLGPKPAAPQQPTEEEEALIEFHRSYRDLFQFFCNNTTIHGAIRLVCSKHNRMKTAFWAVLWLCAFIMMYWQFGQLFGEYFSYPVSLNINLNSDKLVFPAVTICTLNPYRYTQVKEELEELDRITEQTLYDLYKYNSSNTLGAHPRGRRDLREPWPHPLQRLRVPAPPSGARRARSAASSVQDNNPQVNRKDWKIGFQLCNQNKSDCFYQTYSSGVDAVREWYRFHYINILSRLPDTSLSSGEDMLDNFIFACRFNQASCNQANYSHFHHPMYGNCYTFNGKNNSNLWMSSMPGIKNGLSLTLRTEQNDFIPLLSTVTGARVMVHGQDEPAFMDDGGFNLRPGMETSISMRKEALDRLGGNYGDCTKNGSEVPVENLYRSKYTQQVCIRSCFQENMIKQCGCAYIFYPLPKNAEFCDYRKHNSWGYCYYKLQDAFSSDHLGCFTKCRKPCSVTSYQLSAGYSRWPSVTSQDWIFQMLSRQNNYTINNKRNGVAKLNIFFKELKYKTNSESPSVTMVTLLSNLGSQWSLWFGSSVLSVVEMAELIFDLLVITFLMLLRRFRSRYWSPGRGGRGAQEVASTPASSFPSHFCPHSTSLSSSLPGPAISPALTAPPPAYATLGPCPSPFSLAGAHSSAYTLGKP
T1 sequence (Q95165 1-641): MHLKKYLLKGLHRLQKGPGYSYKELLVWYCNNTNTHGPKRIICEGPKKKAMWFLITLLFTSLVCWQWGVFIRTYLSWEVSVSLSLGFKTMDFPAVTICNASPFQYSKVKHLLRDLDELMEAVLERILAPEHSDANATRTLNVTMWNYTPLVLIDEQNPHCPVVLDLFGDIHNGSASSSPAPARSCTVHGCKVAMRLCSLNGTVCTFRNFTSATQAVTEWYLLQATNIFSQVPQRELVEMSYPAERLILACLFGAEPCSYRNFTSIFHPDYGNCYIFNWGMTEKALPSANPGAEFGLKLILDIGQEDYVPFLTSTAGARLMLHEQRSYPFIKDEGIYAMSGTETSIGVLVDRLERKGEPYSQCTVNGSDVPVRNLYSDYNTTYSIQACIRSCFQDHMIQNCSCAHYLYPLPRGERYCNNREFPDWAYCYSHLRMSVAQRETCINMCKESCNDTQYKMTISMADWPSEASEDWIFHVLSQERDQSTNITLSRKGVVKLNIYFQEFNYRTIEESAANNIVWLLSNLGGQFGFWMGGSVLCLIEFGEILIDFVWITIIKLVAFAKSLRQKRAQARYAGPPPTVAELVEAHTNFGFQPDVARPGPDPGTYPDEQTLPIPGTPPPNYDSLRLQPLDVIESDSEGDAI
T1 sequence (A0A8I3MKE6 1-646): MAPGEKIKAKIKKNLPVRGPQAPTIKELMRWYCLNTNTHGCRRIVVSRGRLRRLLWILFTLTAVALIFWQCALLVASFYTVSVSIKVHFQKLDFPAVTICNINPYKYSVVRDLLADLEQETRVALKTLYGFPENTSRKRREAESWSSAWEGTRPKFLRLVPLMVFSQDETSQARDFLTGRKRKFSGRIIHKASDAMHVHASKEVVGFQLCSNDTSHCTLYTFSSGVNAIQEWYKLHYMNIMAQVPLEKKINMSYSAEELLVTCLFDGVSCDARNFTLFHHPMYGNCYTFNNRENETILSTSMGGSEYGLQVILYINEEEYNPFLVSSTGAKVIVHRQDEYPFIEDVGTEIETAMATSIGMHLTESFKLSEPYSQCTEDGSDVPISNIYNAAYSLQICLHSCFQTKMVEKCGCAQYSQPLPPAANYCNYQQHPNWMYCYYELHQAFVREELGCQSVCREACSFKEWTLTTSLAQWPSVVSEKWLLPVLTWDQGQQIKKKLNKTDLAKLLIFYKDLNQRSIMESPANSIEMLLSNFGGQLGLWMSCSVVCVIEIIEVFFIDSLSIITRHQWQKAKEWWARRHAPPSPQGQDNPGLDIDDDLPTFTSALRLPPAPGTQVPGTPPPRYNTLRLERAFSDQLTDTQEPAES
Assay: In vitro measure of sodium channel blocking activity: inhibition of short circuit current (ISC) in airway epithelial monolayers in Ussing chambers
Type: cell-based
Settings: mean of N runs; for Fold Amiloride** (PSA 4022 = 100) Mean: relative potency for PSA 4022 = 100 using EC50 from PSA 4022 in same run
Procedure: One assay used to assess mechanism of action and/or potency of the compounds of the present invention involves the determination of lumenal drug inhibition of airway epithelial sodium currents measured under short circuit current (ISC) using airway epithelial monolayers mounted in Ussing chambers. Cells obtained from freshly excised human, dog, sheep or rodent airways are seeded onto porous 0.4 micron Snapwell™ Inserts (CoStar), cultured at air-liquid interface (ALI) conditions in hormonally defined media, and assayed for sodium transport activity (ISC) while bathed in Krebs Bicarbonate Ringer (KBR) in Using chambers. All test drug additions are to the lumenal bath with half-log dose addition protocols (from 1×10^−11 M to 3×10^−5M), and the cumulative change in ISC (inhibition) recorded. All drugs are prepared in dimethyl sulfoxide as stock solutions at a concentration of 1×10^−2 M and stored at −20° C. […] After the maximal concentration (5×10^−5 M) is administered, the lumenal bath is exchanged three times with fresh drug-free KBR solution, and the resultant ISC measured after each wash for approximately 5 minutes in duration. Reversibility is defined as the percent return to the baseline value for sodium current after the third wash. All data from the voltage clamps are collected via a computer interface and analyzed off-line.
Dose-effect relationships for all compounds are considered and analyzed by the Prism 3.0 program.
PSA 4022 was also tested in each assay as a positive control.

Structure (SMILES) | EC50 [nM] | Fold Amiloride** (PSA 4022 = 100) Mean
N=C(NCCCCc1ccc(NC[C@@H](O)CO)cc1)NC(=O)c1nc(Cl)c(N)nc1N [PSA 16722, N-(3,5-diamino-6-chloropyrazine-2-carbonyl)-N′-{4-[4-((2R)-2,3-dihydroxypropylamino)phenyl]butyl}guanidine] | 22.8 | 50.5
N=C(NCCCCc1ccc(NCCN(C[C@H](O)[C@H](O)CO)C[C@H](O)[C@H](O)CO)cc1)NC(=O)c1nc(Cl)c(N)nc1N [PSA 17218, N-[4-(4-{2-[bis-((2S,3R)-2,3,4-trihydroxybutyl)amino]ethylamino}phenyl)butyl]-N′-(3,5-diamino-6-chloropyrazine-2-carbonyl)guanidine trihydrochloride] | 32.4 | 24.7
N=C(NCCCCc1ccc(NCCCC(N)=O)cc1)NC(=O)c1nc(Cl)c(N)nc1N [PSA 18150, 4-(4-(4-[N′-(3,5-diamino-6-chloropyrazine-2-carbonyl)guanidino]-butyl}phenylamino)butyramide dihydrochloride] | 23.8 | 44.4
COC(=O)[C@@H](N)COc1ccc(CCCCNC(=N)NC(=O)c2nc(Cl)c(N)nc2N)cc1 [PSA 11041, 2-amino-3-(4-{4-[N′-(3,5-diamino-6-chloropyrazine-2-carbonyl)-guanidino]butyl}phenoxy)propionic acid methyl ester] | 32 | 38.6
N=C(NCCCCc1ccc(NCC(N)=O)cc1)NC(=O)c1nc(Cl)c(N)nc1N [PSA 15104, 2-(4-{4-[N′-(3,5-diamino-6-chloropyrazine-2-carbonyl)guanidino]-butyl}phenylamino)acetamide dihydrochloride] | 19.1 | 26.4
N=C(NCCCCc1ccc(NCCCC(=O)O)cc1)NC(=O)c1nc(Cl)c(N)nc1N [PSA 18345, 4-(4-{4-[N′-(3,5-diamino-6-chloropyrazine-2-carbonyl)guanidino]-butyl}phenylamino)butyric acid] | 69 | 12 .4
COC(=O)C(N)CCOc1ccc(CCCCNC(=N)NC(=O)c2nc(Cl)c(N)nc2N)cc1 (centres unmarked) [PSA 17587, 2-amino-4-(4-{4-[N′-(3,5-diamino-6-chloropyrazine-2-carbonyl)-guanidino]butyl}phenoxy)butyric acid methyl ester hydrochloride] | 19.4 | 31.3
N=C(NCCCCc1ccc(NCCNC[C@@H](O)CO)cc1)NC(=O)c1nc(Cl)c(N)nc1N [PSA 16721, N-(4-{4-[{2-[((2R)-2,3-dihydroxypropyl)amino]ethylamino}phenyl)butyl-N′-(3,5-diamino-6-chloropyrazine-2-carbonyl)guanidinetrihydrochloride] | 25.4 | 44.7
N=C(NCCCCc1ccc(OC[C@H](N)C(=O)O)cc1)NC(=O)c1nc(Cl)c(N)nc1N (stereo in doubt) [PSA 10941, 2-amino-3-(4-{4-[N′-(3,5-diamino-6-chloropyrazine-2-carbonyl)-guanidino]butyl}phenoxy)propionic acid] | 32.1 | 30.0

Stronger by EC50, values ahead:

EC50 [nM] | Fold Amiloride** (PSA 4022 = 100) Mean | Structure (SMILES)
15.4 | 35.6 | N=C(NCCCCc1ccc(NCCN)cc1)NC(=O)c1nc(Cl)c(N)nc1N [PSA 16436, N-{4-[4-(2-aminoethylamino)phenyl]butyl}-N′-(3,5-diamino-6-chloropyrazine-2-carbonyl)guanidine]
14.7 | 79.6 | C[N+](C)(C)CCOc1ccc(CCCCNC(=N)NC(=O)c2nc(Cl)c(N)nc2N)cc1.Cl.[Cl-] [PSA 11223, N-(3,5-diamino-6-chloropyrazine-2-carbonyl)-N′-{4-[4-(2-chlorotrimethylammonium)ethoxyphenyl]butyl}guanidine hydrochloride]
12.7 | 64.9 | N=C(NCCCCc1ccc(OCC(=O)N(CCO)CCO)cc1)NC(=O)c1nc(Cl)c(N)nc1N [PSA 16826, 2-(4-{4-[N′-(3,5-diamino-6-chloropyrazine-2-carbonyl)guanidino]-butyl}phenoxy)-N,N-bis-(2-hydroxyethyl)acetamide]
9.56 | 132 | CS(=O)(=O)N(c1ccc(CCCCNC(=N)NC(=O)c2nc(Cl)c(N)nc2N)cc1)S(C)(=O)=O [PSA 10316, N-(3,5-Diamino-6-chloropyrazine-2-carbonyl)-N′-[4-(4-bis(methanesulfonyl)aminophenyl)butyl]guanidine]
6.83 | – | N=C(N)NCCNc1ccc(CCCCNC(=N)NC(=O)c2nc(Cl)c(N)nc2N)cc1 [PSA 17339, N-(3,5-diamino-6-chloropyrazine-2-carbonyl)-N′-{4-[(2-guanidinoethylamino)phenyl]butyl}guanidine trihydrochloride]
5.82 | 136 | N=C(NCCCCc1ccc(C(=O)NCCN)cc1)NC(=O)c1nc(Cl)c(N)nc1N [PSA 11698, 4-{4-[N-(3,5-diamino-6-chloropyrazine-2-carbonyl)guanidino]butyl}-N-(2-aminoethyl)benzamide hydrochloride]
4.85 | 287 | Cl.N=C(N)NCC(O)COc1ccc(CCCCNC(=N)NC(=O)c2nc(Cl)c(N)nc2N)cc1 (centres unmarked) [PSA 11975, N-(3,5-diamino-6-chloropyrazine-2-carbonyl)-N′-{4-[4-(3-guanidino-2-hydroxypropoxy)phenyl]butyl}guanidine hydrochloride]
4.7 | 145 | N=C(NCCCCc1ccc(SCCC(N)=O)cc1)NC(=O)c1nc(Cl)c(N)nc1N [PSA 19605, 3-(4-{4-[N′-(3,5-diamino-6-chloropyrazine-2-carbonyl)guanidino]butyl}phenylthio)propionamide]
3.27 | 268 | N=C(N)NCCC(=O)Nc1ccc(CCCCNC(=N)NC(=O)c2nc(Cl)c(N)nc2N)cc1 [PSA 14984, N-(4-{4-[N′-(3,5-diamino-6-chloropyrazine-2-carbonyl)guanidino]-butyl}phenyl)-3-guanidinopropionamide dihydrochloride]
